Source: patent US20120016009A1, “Optimized Methods For Delivery Of DSRNA Targeting The PCSK9 Gene” (priority 2008, published 2012)
pIC50: −log10 of the molar value. In the oligonucleotide strings, read from the 5' end, every base follows the letter of its sugar. An asterisk marks phosphorothioate; unmarked linkages are phosphodiester. Other units and linkages are bracketed, terminal groups are in braces. A string of capitals states the bases alone. d = 2'-deoxy (DNA); m = 2'-O-methyl; r = 2'-OH (RNA); {P} = phosphate; f = 2'-fluoro

How the values were obtained:
PCSK9 mRNA [1] = test: PCSK9 silencing in primary cynomolgus monkey hepatocytes (dilution series from 30 nM, PCSK9/GAPDH mRNA); type: cell-based; settings: for pIC50: PCSK9 silencing in primary cynomolgus monkey hepatocytes, approximate IC50, read-out: Primary Cynomolgus Monkey Hepatocytes ~IC50; for IC50: primary cynomolgus monkey hepatocytes, read-out: IC50 in Cynomolgous monkey Hepatocyte [nM]s
Description: Primary cynomolgus monkey hepatocytes (cryopreserved) were obtained from In vitro Technologies, Inc. (Baltimore, Md., USA, cat No M00305) and cultured in InVitroGRO CP Medium (cat No Z99029) at 37° C. in an atmosphere with 5% CO2 in a humidified incubator.
For transfection with siRNA, primary cynomolgus monkey cells were seeded on Collagen coated plates (Fisher Scientific, cat. No. 08-774-5) at a density of 3.5×10^4 cells/well in 96-well plates and transfected directly. Transfection of siRNA (eight 2-fold dilution series starting from 30 nM) in duplicates was carried out with lipofectamine 2000 (Invitrogen GmbH, Karlsruhe, Germany, cat. No. 11668-019) as described by the manufacturer.
16 hours after transfection medium was changed to fresh InVitroGRO CP Medium with Torpedo Antibiotic Mix (In vitro Technologies, Inc, cat. No Z99000) added.
24 hours after medium change primary cynomolgus monkey cells were lysed and PCSK9 mRNA levels were quantified with the Quantigene Explore Kit (Genosprectra, Dumbarton Circle Fremont, USA, cat. No. QG-000-02) according to the protocol. PCSK9 mRNA levels were normalized to GAPDH mRNA. Normalized PCSK9/GAPDH ratios were then compared to PCSK9/GAPDH ratio of lipofectamine 2000 only control.

[2] = test system: primary human blood monocytes (hPBMC); test: IFN-alpha induction in primary human blood monocytes (hPBMC); type: cell-based; settings: for IFN-α Induction: first word of the cell IFN-α/TNF-α Induction (Yes/No); for IFN-alpha induction: human primary blood monocytes
Description: (§1) siRNAs were tested for activation of the immune system in primary human blood monocytes (hPBMC). […] However, chemically modified versions of this sequence (AD-1a2, AD-1a3, AD-1a5, and AD-1a4) as well as AD-2a1 were negative for both IFN-alpha and TNF-alpha induction in these same assays (see Table 5, and FIGS. 13A and 13B). Thus chemical modifications are capable of dampening both IFN-alpha and TNF-alpha responses to siRNA molecules.

PCSK9 = test: Total serum cholesterol in rats after LNP01 formulated PCSK9 siRNA (duration of action); type: in vivo, rat; settings: versus PBS or control siRNA
Description: Rats were treated via tail vein injection with 5 mg/kg of LNP01-10792 (Formulated ALDP-10792). Blood was drawn at the indicated time points (see Table 3) and the amount of total cholesterol compared to PBS treated animals was measured by standard means. Total cholesterol levels decreased at day two ˜60% and returned to baseline by day 28.
To test if acute silencing of the PCSK9 transcript by a PCSK9 siRNA (and subsequent PCSK9 protein down-regulation), would result in acutely lower total cholesterol levels, siRNA molecule AD-1a2 (AD-10792) was formulated in an LNP01 lipidoid formulation. Liposomal formulated siRNA duplex AD-1a2 (LNP01-1a2) was injected via tail vein in low volumes (˜0.2 ml for mouse and ˜1.0 ml for rats) at different doses into C57/BL6 mice or Sprague Dawley rats.
Down-modulation of total cholesterol in rats has been historically difficult as cholesterol levels remain unchanged even at high doses of HMG-CoA reductase inhibitors. […] Rats were dosed with a single injection of LNP01-a2 via tail vein at 1, 2.5 and 5 mg/kg. Liver tissue and blood were harvested 72 hours post-injection. […] The mRNA silencing was associate with an acute ˜50-60% decrease of serum total cholesterol (FIGS. 10A and 10B) lasting 10 days, with a gradual return to pre-dose levels by ˜3 weeks (FIG. 10B).
Phosphorothioate modifications at the 3′ ends of both sense and antisense strands of a dsRNA can protect against exonucleases. 2′OMe and 2′F modifications in both the sense and antisense strands of a dsRNA can protect against endonucleases. AD-1a2 (see Table 5b) contains 2′OMe modifications on both the sense and antisense strands. Experiments were performed to determine if the inherent stability (as measured by siRNA stability in human serum) or the degree or type of chemical modification (2′OMe versus 2′F or a mixture) was related to either the observed rat efficacy or the duration of silencing effects. Stability of siRNAs with the same AD-1a2 core sequence, but containing different chemical modifications were created and tested for activity in vitro in primary Cyno monkey hepatocytes. A series of these molecules that maintained similar activity as measured by in vitro IC50 values for PCSK9 silencing (Table 5b), were then tested for their stability against exo and endonuclease cleavage in human serum. Each duplex was incubated in human serum at 37° C. (a time course), and subjected to HPLC analysis. […] Sequences AD-1a3, AD-1a5, and AD-1a4, which were more heavily modified (see chemical modifications in Table 5) all had T ½'s greater than 24 hours. […] Blood was collected from animals at various days post-dose, and total cholesterol concentrations were measured. […]

[3] = test system: primary human blood monocytes (hPBMC); test: TNF-alpha induction in primary human blood monocytes (hPBMC); type: cell-based; settings: for TNF-alpha induction: human primary blood monocytes; for TNF-α Induction: second word of the cell IFN-α/TNF-α Induction (Yes/No)
Description: as §1

PCSK9 mRNA [4] = test: PCSK9 siRNA screening in HepG2 cells (lipofectamine 2000 transfection, PCSK9 mRNA by Quantigene, normalized to GAP-DH); type: cell-based, human; settings: for Mean percent remaining mRNA transcript at siRNA concentration/in cell type 3 nM/HepG2: 3 nM siRNA; for Mean percent remaining mRNA transcript at siRNA concentration/in cell type 30 nM/HepG2: 30 nM siRNA
Outline: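 PCSK9 silencing was assessed in HepG2 cells by lipofectamine 2000 siRNA transfection in 96-well plates. Twenty-four hours later, lysates were analyzed with the Quantigene Explore Kit, with PCSK9 signal normalized to GAP-DH. Eight datapoints were collected per siRNA, and remaining transcript was expressed as a percentage of cells treated with an unrelated control siRNA duplex.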

PCSK9 mRNA [5] = test: In vitro screening of modified dsRNAs targeted to PCSK9 (Table 2b; cell type not given); type: cell-based; settings: 30 nM siRNA
Outline: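 Activity is reported as percent PCSK9 transcript remaining versus an unrelated control duplex, from eight datapoints per siRNA. Knockdown was read by Quantigene branched-DNA assay with GAPDH normalization 24 h after lipofectamine 2000 transfection of 30 nM siRNA.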

Substance	pIC50 (PCSK9 mRNA [1])	IFN-α Induction [2]	IFN-alpha induction [2]	TNF-alpha induction [3]	TNF-α Induction [3]	pIC50 (PCSK9 mRNA [4])	Mean percent remaining mRNA transcript at siRNA concentration/in cell type 3 nM/HepG2 (PCSK9 mRNA [4])	Mean percent remaining mRNA transcript at siRNA concentration/in cell type 30 nM/HepG2 (PCSK9 mRNA [4])	IC50 (PCSK9 mRNA [1])	further results
AD-1a3: modified dsRNA, AD-1a2 core sequence, Alt 2′ F, 2′ OMe both strands; SEQ ID NO:1509/1510 (chain 1 GCCUGGAGUUUAUUCGGAATT; chain 2 {P}-mUfUmCfCmGfAmAfUmAfAmAfCmUfCmCfAmGfGmCdT*dT; chain 1: sugars from the 5' end fmfmfmfmfmfmfmfmfmfdd, backbone not given here)	9.70 to 10.15	No/No	negative	negative	No/No	–	–	–	–	decrease of total cholesterol day 2 post-dose (PCSK9): ~60%
AD-1a4: modified dsRNA, sense 2′ OMe, antisense 2′ F all Py, 5′ Phosphate; SEQ ID NO:1511/1512 (sense rGmCmCmUrGrGrArGmUmUmUrAmUmUmCrGrGrArAdT*dT; antisense {P}-fUfUfCfCrGrArAfUrArArAfCfUfCfCrArGrGfCdT*dT)	9.70 to 10.15	No/No	negative	negative	No/No	–	–	–	–	decrease of total cholesterol day 2 post-dose (PCSK9): ~60%
AD-1a5: modified dsRNA, sense 2′ F, antisense 2′ F all Py, 5′ Phosphate; SEQ ID NO:1513/1514 (sense GCCUGGAGUUUAUUCGGAATT; antisense {P}-fUfUfCfCrGrArAfUrArArAfCfUfCfCrArGrGfCdT*dT; sense: chemistry not given here; sense strand 2'-F modified, exact pattern not fully given)	9.70 to 10.15	No/No	negative	negative	No/No	–	–	–	–	decrease of total cholesterol day 2 post-dose (PCSK9): ~60%
AD-9314: unmodified parental PCSK9 siRNA, SEQ ID NO:1503/1504 (chain 1 rGrCrCrUrGrGrArGrUrUrUrArUrUrCrGrGrArAdT*dT; chain 2 rUrUrCrCrGrArArUrArArArCrUrCrCrArGrGrCdT*dT)	9.70 to 10.15	Yes/Yes	induced IFN-alpha	induced TNF-alpha	Yes/Yes	10.40	22%	11%	–	activity in vitro in primary monkey hepatocytes (PCSK9 mRNA [1]): active in vitro; IFN-alpha induction ([2]; listed as AD-1a1): induce both IFN-alpha and TNF-alpha; TNF-alpha induction ([3]; listed as AD-1a1): induce both IFN-alpha and TNF-alpha; Remaining mRNA in % of controls at siRNA conc. of 30 nM (PCSK9 mRNA [5]): 9%
AD-9713: PCSK9 siRNA (sense rAmCrAmUmUmUrAmUmCmUmUmUmUrGrGrGmUmCmUdT*dT; antisense rArGrArCrCmCrArArArArGrAmUrArArArUrGrUdT*dT)	–	–	–	–	–	–	25%	22%	0.5 nM	–
AD-9723: PCSK9 siRNA (sense rArGmCmCrArArGmCmCmUmCmUmUmCmUmUrAmCmUdT*dT; antisense rArGmUrArArGrArArGrArGrGrCrUrUrGrGrCrUdT*dT)	–	–	–	–	–	–	26%	12%	0.5 nM	–
AD-9736: PCSK9 siRNA which targets only human and monkey PCSK9 message; SEQ ID NO:1517/1518 (chain 1 AGGuGuAucuccuAGAcAcTsT; chain 2 GUGUCuAGGAGAuAcACCUTsT; as printed in the source, key not given here)	9.52 to 10.00	No/No	–	–	No/No	10.40	29%	22%	0.5 nM	–
AD-9755: PCSK9 siRNA (sense mUmCmUrGrGrGmUmUmUmUrGmUrArGmCrAmUmUmUdT*dT; antisense rArArArUrGrCmUrAmCrArArArArCrCmCrArGrAdT*dT)	–	–	–	–	–	–	29%	28%	0.5 nM	–
AD-9761: PCSK9 siRNA (sense rGmUmCmUrGmCmCrGrArGmCmCrGrGrArGmCmUmCdT*dT; antisense rGrArGrCrUrCrCrGrGrCrUrCrGrGmCrArGrArCdT*dT)	–	–	–	–	–	–	33%	15%	0.5 nM	–
AD-9762: PCSK9 siRNA (sense mCrAmUrAmCrArGrArGmUrGrAmCmCrAmCmCrGrGdT*dT; antisense rCrCrGrGrUrGrGrUmCrArCrUrCrUrGmUrArUrGdT*dT)	–	–	–	–	–	9.40	28%	9%	0.5 nM	–
AD-10793: modified dsRNA, SEQ ID NO:1307/1308 (chain 1 rGmCmCmUrGrGrArGmUmUmUrAmUmUmCrGrGrArAdT*dT; chain 2 mUrUmCrCrGrArAmUrArArArCrUmCmCrArGrGrCdT*dT)	–	–	–	–	–	–	–	–	–	activity in vitro in primary monkey hepatocytes (PCSK9 mRNA [1]): active in vitro; Remaining mRNA in % of controls at siRNA conc. of 30 nM (PCSK9 mRNA [5]): 32%
AD-10796: modified dsRNA, SEQ ID NO:1309/1310 (chain 1 rGmCmCmUrGrGrArGmUmUmUrAmUmUmCrGrGrArAdT*dT; chain 2 rUrUrCrCrGrArArUrArArArCrUrCrCrArGrGrCdT*dT)	–	–	–	–	–	10.00	–	–	0.1 nM	activity in vitro in primary monkey hepatocytes (PCSK9 mRNA [1]): active in vitro; Remaining mRNA in % of controls at siRNA conc. of 30 nM (PCSK9 mRNA [5]): 13%
AD-ctrl: control siRNA targeting luciferase; SEQ ID NO:1519/1520 (chain 1 mCmUmUrAmCrGmCmUrGrArGmUrAmCmUmUmCrGrAdT*dT; chain 2 rUrCrGrArArGmUrArCrUmCrArGrCrGmUrArArGdT*dT) [reference compound]	–	No/No	–	–	No/No	–	–	–	–	–
